Laboratory results from ChEMBL document CHEMBL1201862, “PubChem BioAssay data set” (2004).
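In this assay, cells in 96-well plates receive the compound at five concentrations for 48 hours. Endpoints are linearly interpolated between the surrounding concentrations. GI50 = concentration required for 50% inhibition of growth.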 Activity calls are given as the source filed them. Rule as the data show it: active = GI50 up to about 1.1 µM and inactive = higher.

Columns and labels:
Assay in all cases: DTP human tumour cell line panel, 48 h
[1] = system: 786-0
[2] = system: CCRF-CEM
[3] = system: EKVX
[4] = system: HCC 2998
[5] = system: HCT-15
[6] = system: IGROV-1
[7] = system: K562
[8] = system: MDA-MB-231
[9] = system: MOLT-4
[10] = system: NCI-H23
[11] = system: PC-3
[12] = system: RPMI-8226
[13] = system: SK-MEL-28
[14] = system: SK-MEL-5
[15] = system: UACC-62
[16] = system: NCI-H226
[17] = system: NCI-H522
[18] = system: NCI/ADR-RES
[19] = system: SNB-19
[20] = system: U-251

SMILES | GI50 [1] | GI50 [2] | GI50 [3] | GI50 [4] | GI50 [5] [µM] | GI50 [6] | GI50 [7] | GI50 [8] | GI50 [9] | GI50 [10] | GI50 [11] | GI50 [12] | GI50 [13] | GI50 [14] | GI50 [15] | GI50 [16] | GI50 [17] | GI50 [18] | GI50 [19] | GI50 [20]
COc1ccc(Nc2nc3c([nH]2)c(=O)n(C)c(=O)n3C)cc1 | > 10 µM (inactive) | > 10 µM (inactive) | > 10 µM (inactive) | > 10 µM (inactive) | > 10 | > 10 µM (inactive) | > 10 µM (inactive) | > 10 µM (inactive) | > 10 µM (inactive) | > 10 µM (inactive) | > 10 µM (inactive) | > 10 µM (inactive) | > 10 µM (inactive) | > 10 µM (inactive) | > 10 µM (inactive) |  |  |  |  | 
O=C(O)CCC(NC(=O)c1ccc(CNc2nc3cc(C(F)(F)F)ccc3nc2C(=O)O)cc1)C(=O)O (stereo not drawn) | > 100 µM (inactive) | > 100 µM (inactive) | > 100 µM (inactive) | > 100 µM (inactive) | > 100 | > 100 µM (inactive) | > 100 µM (inactive) |  | > 100 µM (inactive) | > 100 µM (inactive) | > 100 µM (inactive) |  | > 100 µM (inactive) |  | > 100 µM (inactive) | > 100 µM (inactive) | > 100 µM (inactive) | > 100 µM (inactive) | > 100 µM (inactive) | > 100 µM (inactive)
CCCOP1(=O)C=C(C)C(Cl)=C(C)C1 (stereo not drawn) | 16.9 µM (inactive) | 15 µM (inactive) | 74.3 µM (inactive) | 54.7 µM (inactive) | 20 | 34.6 µM (inactive) | 24.7 µM (inactive) |  | 17.6 µM (inactive) | 16.9 µM (inactive) |  | 12 µM (inactive) | 18.3 µM (inactive) | 18.7 µM (inactive) | 15 µM (inactive) | 20.9 µM (inactive) | 15 µM (inactive) |  | > 100 µM (inactive) | 23.2 µM (inactive)
CC(=O)O[C@H]1C(=O)[C@@]2(C)C([C@H](OC(=O)c3ccccc3)[C@]3(O)C[C@H](OC(=O)[C@H](O)[C@H](NC(=O)c4ccccc4)c4ccc(Cl)cc4)C(C)=C1C3(C)C)C1(OC(C)=O)CO[C@@H]1C[C@@H]2O (stereo partly drawn) | 0.00711 µM (active) | 0.00188 µM (active) | 0.769 µM (active) | 0.000813 µM (active) | 0.516 | 0.000136 µM (active) | 0.000807 µM (active) |  | 0.01 µM (active) | 0.00104 µM (active) |  | 0.000157 µM (active) | 0.00157 µM (active) | 0.000736 µM (active) | 0.000376 µM (active) | 0.00229 µM (active) | 0.000356 µM (active) |  | 0.0304 µM (active) | 0.00182 µM (active)
Clc1ccc(C(n2cc(Br)cn2)n2cc(Br)cn2)cc1 | 14.1 µM (inactive) | 21.3 µM (inactive) | 19.7 µM (inactive) | 16.4 µM (inactive) | 13.8 | 18.7 µM (inactive) | 18 µM (inactive) |  | 16.5 µM (inactive) | 17.9 µM (inactive) |  | 19.9 µM (inactive) | 17.8 µM (inactive) | 14 µM (inactive) | 13.4 µM (inactive) | 8.91 µM (inactive) | 13.3 µM (inactive) |  | > 10 µM (inactive) | 16.3 µM (inactive)
Cc1cc(Cl)ccc1NC(=O)C1C(=O)N(c2ccc(Cl)cc2C)C(=O)/C1=N\N (stereo not drawn) | 81.3 µM (inactive) | 28.6 µM (inactive) | 57.5 µM (inactive) | 24.9 µM (inactive) | 34.8 | 55.1 µM (inactive) | 45.1 µM (inactive) |  | 27.9 µM (inactive) | 36.9 µM (inactive) |  | 25.4 µM (inactive) | 52.5 µM (inactive) | 30.5 µM (inactive) | 35.8 µM (inactive) | 27 µM (inactive) | 53.5 µM (inactive) |  | 38.9 µM (inactive) | 33 µM (inactive)
O=c1[nH]nc(-c2ccccc2)c2[nH]c(-c3ccccc3)cc12 | > 100 µM (inactive) | > 100 µM (inactive) | > 100 µM (inactive) |  | 68.5 | > 100 µM (inactive) | 50.8 µM (inactive) |  | 39 µM (inactive) | > 100 µM (inactive) |  | 88.3 µM (inactive) |  |  |  |  |  | > 100 µM (inactive) | > 100 µM (inactive) | 
COc1ccc2c(c1)/C(=C\c1cccc(/C=C3/C(=O)Nc4ccc(OC)cc43)n1)C(=O)N2 | 0.964 µM (active) | 0.421 µM (active) | 2.84 µM (inactive) | 0.933 µM (active) | 1.56 |  | 0.412 µM (active) |  | 0.261 µM (active) | 0.925 µM (active) | 1.32 µM (inactive) |  |  | 0.834 µM (active) |  |  | 0.861 µM (active) | 8.85 µM (inactive) | 0.805 µM (active) | 0.461 µM (active)
Cc1nc2c(O)cccc2c(=O)[nH]1 | > 1000 µM (inactive) | 305 µM (inactive) | 456 µM (inactive) | 418 µM (inactive) | 270 | 405 µM (inactive) | 359 µM (inactive) |  | 339 µM (inactive) | 303 µM (inactive) | 451 µM (inactive) | 135 µM (inactive) | > 1000 µM (inactive) |  | 232 µM (inactive) | 203 µM (inactive) | 356 µM (inactive) | 548 µM (inactive) | 670 µM (inactive) | 670 µM (inactive)
